18 molecules from patent publication EP1166781A1, “PROTEASOME INHIBITORS” (KYOWA HAKKO KOGYO CO., LTD., priority 1999, dated 2000) can be followed below.

Molecules are shown by their SMILES. Like-named read-outs stand apart in the source and are kept apart here.

For assay [1], the system named is Human colon cancer, WiDr cells. The assay is described as follows: Antiproliferative activity in WiDr cells (MTT, 72 hours). Type of assay: cell-based. The method, then:
Human colon cancer, WiDr cells suspended in MEM media containing 10% of fetal calf serum were seeded in 96-well microtiter plates at 2 x 10^3cells/well, and precultured in an incubator with 5% of CO2 at 37°C for 24 hours. Then, each compound diluted appropriately with the media was added into the well at 50 µl/well. At this time, a final concentration of each compound is up to 100 µmol/l or 1 µmol/l. The cells were cultured in the incubator with 5% of CO2 at 37°C for additional 72 hours. At 5 hours before the culturing was terminated, MTT [3-(4,5-dimethylthiazol-2-yl)-2,5-[…] bromide] dissolved in the medium at a final concentration of 1 mg/mL was added into the well at 50 µl/well. After the culturing, dimethyl sulfoxide was added to the well at 150 µl/well, and the plate was vigorously stirred using a plate mixer to dissolve crystals of MTT-formazan completely. […]

Assay [2] concerns human colon cancer cell line, WiDr transplanted in nude mice. The assay is described as follows: Antitumor activity for WiDr transplanted in nude mice. Type of assay: in vivo, BALB/c-nu/nu mouse. To be noted: intraperitoneally for 5 consecutive days, 7 days, WiDr solid tumor in mice. The method, then: Compound 4 was dissolved in ethanol and then prepared at the fixed concentrations by adding cremophor EL (supplied by SIGMA) and saline. At this time, final concentrations of ethanol, cremophor EL, and saline are 5%, 7.5% and 87.5%, respectively. 2 mm x 2 mm of the tumor piece of human colon cancer cell line, WiDr was subcutaneously transplanted in the ventral site of a BALB/c-nu/nu mouse. At the time when a tumor volume [a major axis (a), a minor axis (b): ab^2/2] attained to 25-60 mm^3, the test compound prepared was intraperitoneally administered for 5 consecutive days to five mice as one proup.
For evaluating antitumor activity of the compound, the tumor volume was measured everyday, and the ratio of the volume (V) on the day of each measurement to the volume (V0) on the day when the administration of the compound was started was obtained to calculate T/C(%).

In assay [3] the target is T1, proteasome (Homo sapiens, UniProt P28074).
T1 construct: The obtained high molecular fraction (molecular weight >500K) was used as an enzyme solution for the detection of proteasome activity; endogenous in cells; host or cells: HeLa S3 cells: homogenate, 100,000G supernatant, >500K fraction from Centricon-500
In words: Proteasome inhibitory activity (Suc-Leu-Leu-Val-Tyr-AMC cleavage, crude enzyme solution from HeLa S3 cell extract). Type of assay: biochemical. The method, then: 1 x 10^9 of HeLa S3 cells were dispersed in 5 ml of the buffer A [20 mmol/L of Tris (pH 7.5), 2 mmol/L of ATP, 5 mmol/L of MgCl2, 1 mmol/L of dithiothreitol (DTT)], and then homogenized at 4°C. The supernatant centrifuged at 100,000G was concentrated by a Centricon-500 (supplied by Amicon) and diluted with 2.5 ml of the buffer B [25 mmol/L of Tris/HCl (pH 7.5), 2 mmol/L of ATP, 1 mmol/L of DTT, 20% of glycerol]. The obtained high molecular fraction (molecular weight >500K) was used as an enzyme solution for the detection of proteasome activity. Suc-Leu-Leu-Val-Tyr-AMC [Suc: Succinyl; AMC: Aminomethylcoumarin](supplied by Peptide Institute, Inc.) was used as a substrate for measuring inhibitory activity for proteasome (stored as a 2 mmol/L DMSO solution). The reaction was carried out by the following method using 96-well microtiter plates. To 96 µl of a reaction buffer [20 mmol/L of Tris/HCl (pH 8), 0.5 mmol/L of EDTA, 0.04% of sodium dodecylsulfate (SDS)] were added 1 µl of a drug solution (DMSO) and 2 µl of an enzyme solution followed by adding 1 µl of a substrate solution thereto, and then the mixture was incubated at 37°C for one hour. […]

The mark [4] stands for this setting: crude proteasome fraction (>500K) from HeLa S3 cells, substrate Suc-Leu-Leu-Val-Tyr-AMC, 37°C for one hour, read-out: IC50.

In the case of `CCC(C)C1C(=O)OC1C(=O)NC1CC1CC(NC(=O)C(C)N)C(=O)OCc1ccccc1` (centres unmarked) [Compound 4], the results for the IC50 in assay [1] and in assay [3] (setting [4]) were 50 nM and 30 nM, respectively. For the same molecule, the T/C is recorded as 56% in assay [2] (Dose 5.0 mg/kg/day) and 49% in assay [2] (Dose 10.0 mg/kg/day).

`CCC(C)C1C(=O)OC1C(=O)NC1CC1CC(NC(=O)C(C)NC(=O)NCc1ccccc1)C(=O)OCc1ccccc1` (centres unmarked) [Compound 30]: the IC50 came out at 64 nM in assay [1] and 4 nM in assay [3] (setting [4]).

For the molecule `CCC(C)C1C(=O)OC1C(=O)NC1CC1CC(NC(=O)C(C)NS(=O)(=O)c1ccccc1)C(=O)OCc1ccccc1` (centres unmarked) [Compound 39], the values for the half-maximal inhibitory concentration (IC50) in assay [1] and in assay [3] (setting [4]) were 486 nM and 8 nM, respectively.

Consider `CCC(C)C1C(=O)OC1C(=O)NC1CC1CC(NC(=O)C(C)NC(=O)OC(C)(C)C)C(=O)NCc1cccc2ccccc12` (centres unmarked) [Compound 21], for which the IC50 in assay [1] was found to be 520 nM; in assay [3], 4 nM.

Consider `CC(C)C[C@@H]1C(=O)O[C@H]1C(=O)NC1CC1CC(NC(=O)[C@H](C)NC(=O)OC(C)(C)C)C(=O)NCc1cccc2ccccc12` (some centres unmarked) [Compound 91], for which the IC50 came to 22000 nM in assay [1] and 24 nM in assay [3] (setting [4]).

As for `C=CCOC(=O)C(CC1CC1NC(=O)C1OC(=O)C1C(C)CC)NC(=O)C(C)N` (centres unmarked) [Compound 10], the IC50 in assay [1] amounted to 68 nM; in assay [3] (setting [4]) it was 46 nM.

As to `CCCCNC(=O)C(CC1CC1NC(=O)C1OC(=O)C1C(C)CC)NC(=O)C(C)NC(=O)OC(C)(C)C` (centres unmarked) [Compound 24], the IC50 came out at 20 nM in assay [1] and 15 nM in assay [3].

For `CC(C)CC1C(=O)OC1C(=O)NCCCCC(COC(=O)c1ccccc1)NC(=O)C(C)NC(=O)OC(C)(C)C` (centres unmarked) [Compound 56], the IC50 amounted to 1900 nM in assay [1] and 22 nM in assay [3] (setting [4]).

Consider `CCCCOC(=O)C(CC1CC1NC(=O)C1OC(=O)C1C(C)CC)NC(=O)C(C)N` (centres unmarked) [Compound 12], for which the figures for the IC50 in assay [1] and in assay [3] (setting [4]) were less than 41 nM and 51 nM, respectively.

Consider `CCC(C)C1C(=O)OC1C(=O)NCCCC(NC(=O)C(C)N)C(=O)OCc1ccccc1` (centres unmarked) [Compound 46], for which the concentration for half-maximal inhibition (IC50) in assay [1] is 150 nM; in assay [3] (setting [4]), 6 nM.

For the molecule `CCC(C)C1C(=O)OC1C(=O)NC1CC1CC(NC(=O)C(C)NC(=O)OCc1ccccc1)C(=O)OCc1ccccc1` (centres unmarked) [Compound 28], the 50% inhibitory concentration (IC50) in assay [1] amounted to 93 nM; in assay [3] (setting [4]) it was 5 nM.

Turning to `CCCCOC(=O)C(CC1CC1NC(=O)C1OC(=O)C1C(C)CC)NC(=O)C(C)NC(=O)OC(C)(C)C` (centres unmarked) [Compound 11], the values for the 50% inhibitory concentration (IC50) in assay [1] and in assay [3] (setting [4]) were 10 nM and 19 nM, respectively.

In the case of `CCC(C)C1C(=O)OC1C(=O)NC1CC1CC(NC(=O)C(C)NS(C)(=O)=O)C(=O)OCc1ccccc1` (centres unmarked) [Compound 40], the IC50 came to 450 nM in assay [1] and 24 nM in assay [3] (setting [4]).

On to `CCC(C)C1C(=O)OC1C(=O)NC1CC1CC(NC(=O)C(C)NC(=O)OC(C)(C)C)C(=O)OCC(=O)c1ccccc1` (centres unmarked) [Compound 18], for which the IC50 in assay [1] stood at 200 nM; in assay [3] (setting [4]), 12 nM.

`CCC(C)C1C(=O)OC1C(=O)NC1CC1CC(NC(=O)C(C)NC(=O)CO[Si](C)(C)C(C)(C)C)C(=O)OCc1ccccc1` (centres unmarked) [Compound 37]: the figures for the IC50 in assay [1] and in assay [3] (setting [4]) were 5700 nM and 6 nM, respectively.

On to `CCC(C)C1C(=O)OC1C(=O)NC1CC1CC(NC(=O)C(C)NP(=O)(c1ccccc1)c1ccccc1)C(=O)OCc1ccccc1` (centres unmarked) [Compound 41], for which the figures for the IC50 in assay [1] and in assay [3] (setting [4]) were 2400 nM and 12 nM, respectively.

Turning to `C=CCOC(=O)C(CC1CC1NC(=O)C1OC(=O)C1C(C)CC)NC(=O)C(C)NC(=O)OC(C)(C)C` (centres unmarked) [Compound 9], the values for the IC50 in assay [1] and in assay [3] (setting [4]) were 10 nM and 26 nM, respectively.

Take `CCC(C)C1C(=O)OC1C(=O)NC1CC1CC(NC(=O)C(C)N)C(=O)NCc1cccc2ccccc12` (centres unmarked) [Compound 22]: the IC50 in assay [1] was less than 41 nM; in assay [3] (setting [4]), 12 nM.
